Active and inactive are the calls of the source. No cut-off for these calls is given here.
What was measured:
cells [1] = conditions: Mus musculus, BaF3, 3 h
[2] = Inhibition of BCR-ABL phosphorylation in mouse BaF3 cells incubated for 3 hrs by immunoblotting analysis; assay type: functional, cell-based
[3] = Inhibition of BCR-ABL E255V mutant (unknown origin) expressed in mouse BaF3 cells assessed as inhibition of cell growth incubated for 72 hrs by […] CellTiter96 viability analysis
[4] = Inhibition of BCR-ABL H396P mutant (unknown origin) expressed in mouse BaF3 cells assessed as inhibition of tyrosine phosphorylation incubated for 3 hrs by immunoblotting analysis; assay type: cell-based; conditions: BaF3, 3 h
BaF3 [5] = experiment: Induction of apoptosis in mouse BaF3 cells expressing Bcr-Abl H396R mutant assessed as increase in apoptotic cells at 1500 nM incubated for 72 hrs by Annexin V-phycoerythrin and 7-amino-actinomycin D staining based PCA instrument analysis relative to control; assay type: functional
BaF3 [6] = experiment: Induction of apoptosis in mouse BaF3 cells expressing Bcr-Abl M244V mutant assessed as increase in apoptotic cells at 1500 nM incubated for 72 hrs by Annexin V-phycoerythrin and 7-amino-actinomycin D staining based PCA instrument analysis relative to control; assay type: functional
cells [7] = conditions: Mus musculus, BaF3, 3 h; remark: listed apart in the source
BaF3 [8] = experiment: Induction of apoptosis in mouse BaF3 cells expressing Bcr-Abl H396P mutant assessed as increase in apoptotic cells at 1500 nM incubated for 72 hrs by Annexin V-phycoerythrin and 7-amino-actinomycin D staining based PCA instrument analysis relative to control; assay type: functional
cells [9] = conditions: Mus musculus, BaF3, 3 h; remark: listed apart in the source
BaF3 [10] = experiment: Induction of apoptosis in mouse BaF3 cells expressing Bcr-Abl Y253F mutant assessed as increase in apoptotic cells at 1500 nM incubated for 72 hrs by Annexin V-phycoerythrin and 7-amino-actinomycin D staining based PCA instrument analysis relative to control; assay type: functional
[11] = Inhibition of BCR-ABL Y253H mutant (unknown origin) expressed in mouse BaF3 cells assessed as inhibition of cell growth incubated for 72 hrs by […] CellTiter96 viability analysis
BaF3 [12] = experiment: Induction of apoptosis in mouse BaF3 cells expressing Bcr-Abl T315I mutant at 30 to 1500 nM incubated for 72 hrs by Annexin V-phycoerythrin and 7-amino-actinomycin D staining based PCA instrument analysis relative to control; assay type: functional, cell-based; conditions: dose 30-1500 nM
BaF3 [13] = experiment: Induction of apoptosis in mouse BaF3 cells expressing Bcr-Abl H396R mutant at 30 to 300 nM incubated for 72 hrs by Annexin V-phycoerythrin and 7-amino-actinomycin D staining based PCA instrument analysis; assay type: functional, cell-based; conditions: dose 30-300 nM
BaF3 [14] = experiment: Induction of apoptosis in mouse BaF3 cells at 30 to 1500 nM incubated for 72 hrs by Annexin V-phycoerythrin and 7-amino-actinomycin D staining based PCA instrument analysis relative to control; assay type: toxicity, cell-based; conditions: baf3, 72 h, 1.5 µM, dose 30-1500 nM
[15] = Inhibition of BCR-ABL F311L mutant (unknown origin) expressed in mouse BaF3 cells assessed as inhibition of cell growth incubated for 72 hrs by […] CellTiter96 viability analysis
BaF3 [16] = experiment: Induction of apoptosis in mouse BaF3 cells expressing Bcr-Abl F359V mutant at 30 to 300 nM incubated for 72 hrs by Annexin V-phycoerythrin and 7-amino-actinomycin D staining based PCA instrument analysis; assay type: functional, cell-based; conditions: dose 30-300 nM
cells [17] = conditions: Mus musculus, BaF3, 3 h; remark: listed apart in the source
[18] = Inhibition of BCR-ABL Y253F mutant (unknown origin) expressed in mouse BaF3 cells assessed as inhibition of cell growth incubated for 72 hrs by […] CellTiter96 viability analysis
BaF3 [19] = experiment: Induction of apoptosis in mouse BaF3 cells expressing Bcr-Abl E255K mutant assessed as increase in apoptotic cells at 1500 nM incubated for 72 hrs by Annexin V-phycoerythrin and 7-amino-actinomycin D staining based PCA instrument analysis relative to control; assay type: functional
BaF3 [20] = experiment: Induction of apoptosis in mouse BaF3 cells expressing Bcr-Abl M351T mutant assessed as increase in apoptotic cells at 1500 nM incubated for 72 hrs by Annexin V-phycoerythrin and 7-amino-actinomycin D staining based PCA instrument analysis relative to control; assay type: functional
BaF3 [21] = experiment: Induction of apoptosis in mouse BaF3 cells expressing Bcr-Abl L387M mutant assessed as increase in apoptotic cells at 1500 nM incubated for 72 hrs by Annexin V-phycoerythrin and 7-amino-actinomycin D staining based PCA instrument analysis relative to control; assay type: functional
[22] = Inhibition of BCR-ABL F311L mutant (unknown origin) expressed in mouse BaF3 cells assessed as inhibition of tyrosine phosphorylation incubated for 3 hrs by immunoblotting analysis; assay type: cell-based; conditions: BaF3, 3 h
BaF3 [23] = experiment: Induction of apoptosis in mouse BaF3 cells expressing Bcr-Abl F359V mutant assessed as increase in apoptotic cells at 1500 nM incubated for 72 hrs by Annexin V-phycoerythrin and 7-amino-actinomycin D staining based PCA instrument analysis relative to control; assay type: functional
cells [24] = conditions: Mus musculus, BaF3, 72 h
BaF3 [25] = experiment: Induction of apoptosis in mouse BaF3 cells expressing wild-type Bcr-Abl at 30 to 300 nM incubated for 72 hrs by Annexin V-phycoerythrin and 7-amino-actinomycin D staining based PCA instrument analysis; assay type: functional, cell-based; conditions: dose 30-300 nM
BaF3 [26] = experiment: Induction of apoptosis in mouse BaF3 cells expressing Bcr-Abl Y253F mutant at 30 to 300 nM incubated for 72 hrs by Annexin V-phycoerythrin and 7-amino-actinomycin D staining based PCA instrument analysis; assay type: functional, cell-based; conditions: dose 30-300 nM
[27] = Inhibition of BCR-ABL M351T mutant (unknown origin) expressed in mouse BaF3 cells assessed as inhibition of cell growth incubated for 72 hrs by […] CellTiter96 viability analysis
BaF3 [28] = experiment: Induction of apoptosis in mouse BaF3 cells expressing wild-type Bcr-Abl assessed as increase in apoptotic cells at 1500 nM incubated for 72 hrs by Annexin V-phycoerythrin and 7-amino-actinomycin D staining based PCA instrument analysis relative to control; assay type: functional
BaF3 [29] = experiment: Induction of apoptosis in mouse BaF3 cells expressing Bcr-Abl E255V mutant assessed as increase in apoptotic cells at 1500 nM incubated for 72 hrs by Annexin V-phycoerythrin and 7-amino-actinomycin D staining based PCA instrument analysis relative to control; assay type: functional
[30] = Inhibition of BCR-ABL H396R mutant (unknown origin) expressed in mouse BaF3 cells assessed as inhibition of cell growth incubated for 72 hrs by […] CellTiter96 viability analysis
cells [31] = conditions: Mus musculus, BaF3, 3 h; remark: listed apart in the source
BaF3 [32] = experiment: Induction of apoptosis in mouse BaF3 cells expressing Bcr-Abl V379l mutant assessed as increase in apoptotic cells at 1500 nM incubated for 72 hrs by Annexin V-phycoerythrin and 7-amino-actinomycin D staining based PCA instrument analysis relative to control; assay type: functional
[33] = BaF3, time 72 hrs, condition chronic myelogenous leukemia

IC50 (cells [1]): 8 nM
IC50 [2]: Not Active
IC50 [4]: 70 nM
IC50 (cells [7]): 8 nM
IC50 (cells [9]): 70 nM
IC50 (cells [17]): 250 nM
IC50 [22]: 44 nM
IC50 (cells [24]): > 2000 nM
IC50 (cells [31]): > 5000 nM
SMILES: Cc1cn(-c2cc(NC(=O)c3ccc(C)c(Nc4nccc(-c5cccnc5)n4)c3)cc(C(F)(F)F)c2)cn1 [NILOTINIB]
IC50 ([3]; BaF3, 72 h): 430 nM
IC90 [3, 33]: 2000 nM
Activity (BaF3 [5]): >90%
Activity (BaF3 [6]): >90%
Activity (BaF3 [8]): >90%
Activity (BaF3 [10]): >90%
IC50 ([11]; BaF3, 72 h): 450 nM
IC90 [11, 33]: 1020 nM
Activity (BaF3 [12]): inactive
Activity (BaF3 [13]): Active
Activity (BaF3 [14]): Non-Toxic
IC50 ([15]; BaF3, 72 h): 23 nM
IC90 [15, 33]: 48 nM
Activity (BaF3 [16]): Active
IC50 ([18]; BaF3, 72 h): 125 nM
IC90 [18, 33]: 215 nM
Activity (BaF3 [19]): >90%
Activity (BaF3 [20]): >90%
Activity (BaF3 [21]): >90%
Activity (BaF3 [23]): >90%
Activity (BaF3 [25]): Active
Activity (BaF3 [26]): Active
IC50 ([27]; BaF3, 72 h): 15 nM
IC90 [27, 33]: 31 nM
Activity (BaF3 [28]): >90%
Activity (BaF3 [29]): 65%
IC50 ([30]; BaF3, 72 h): 41 nM
IC90 [30, 33]: 73 nM
Activity (BaF3 [32]): >90%
